# Marks after values point to notes of the source that are not given here.
# What was measured:
# [1] = Solution stability in different alkaline solutions (HPLC impurities); format: physicochemical; set-up: C = Dimer impurity: unit not given beside the values
# [2] = in vivo; set-up: species or system Swiss Albino mice; conditions: Swiss Albino, mouse, po, 2.5 mg/kg
# Description: 5(S)-CPT (2.5 mg/kg) and 5(RS)-CPT (5 mg/kg, including 2.5 mg/kg of 5(S)-CPT in the mixture) were been administered to Swiss Albino mice to evaluate oral pharmacokinetics.
# Swiss Albino mice, 3-6 weeks of age and weighing between 28-34 g were used in the study. Twelve mice were used per study. The oral pharmacokinetics test was carried out in overnight fasted condition and intravenous pharmacokinetics was carried out in fed condition. The test drugs were administered as a solution by oral gavage or lateral tail vein injection. Sparse blood samples of about 250 microliters were collected from retro-orbital plexus at designated time points into microcentrifuge tubes containing 25 microliters of EDTA. Plasma was separated by centrifuging blood at 12,800 rpm for 2 min and refrigerated until analysis.
# Samples were tested for the presence of the test drug as follows. An aliquot of 100µl plasma (stored at 8° C.) was precipitated with 400µl of cold methanol for the estimation of total (lactone+carboxylate). […] Concentrations of the test drug were calculated from the linearity plotted by spiking known concentrations of the test drug in blank rat plasma. The pharmacokinetics of the test drug was calculated using non-compartmental analysis.
# [3] = Physicochemical characteristics of drug substance, powder composition, blend and lyophilized product
# Source text: Another indication of the physicochemical characteristics of the powder composition is the density properties such as bulk and tapped density. Bulk density is described as untapped or tapped. Untapped bulk density of a substance is the undisturbed packing density of that substance and tapped bulk density relates to the packing density after tapping a bed of substance until no change in the packing density is seen. Bulk density and tapped density can be determined using compendial bulk density apparatus, the method being given in United States Pharmacopeia 29, United States Pharmacopeial Convention, Inc., Rockville, Md., 2005, at pages 2638-2639. A higher bulk density indicates a dense material allowing a higher dose to be filled into a given size capsule for example. The powder compositions can have bulk densities from about 0.8 g/ml to about 0.2 g/ml, or from about 0.6 g/ml to about 0.2 g/ml.
# The Hausner ratio is a measure of inter-particle friction and the potential powder arch or bridge strength and stability (Hausner, H. H. Friction conditions in a mass of metal powders. International Journal of Powder Metallurgy 1967, 3 (4), pages 7-13). It has been widely used to estimate the flow properties of powders, blends, granules and other such particles or aggregates and is expressed as the ratio of tapped bulk density to the untapped bulk density of the substance. Hausner ratio used herein is defined as ratio of tapped to untapped bulk densities. A Hausner ratio of <1.2 indicates good flow while ratio >1.5 indicate poor flow. The powder compositions can have a Hausner ratio less than 1.5 or less than 1.2.
# Carr index as used herein is defined as the percent compressibility which is a percentage ratio of the difference between tapped bulk density and initial bulk density to tapped bulk density. Carr index values between 5-15% represent materials with excellent flowability, values between 18-21% represent fair-flowability and values above 40% represent very poor flowability. The powder compositions of the invention can have Carr index values less than 40% or less than 21% or less than 15%.
# Table 1 describes the physicochemical characteristics of DRF-(5S,20S)-1042, which is used in the examples below.
# The powder composition and formulation blend along with their placebo have been characterized for their physical parameters and the data has been tabulated in table 11.
# After completion of lyophilization cycle the vials were sealed using 20 mm aluminum flip-off seals. The resulting lyophilized product was tested for various parameters as per Table 19.
# [4] = physchem; format: physicochemical; conditions: thermodynamic from solid
# Description: Excess amounts of DRF-(5S,20S)-1042 were added to different media including water, fasting state simulated intestinal fluid (FaSIF), fed state simulated intestinal fluid (FeSIF), aqueous sodium carbonate solution (0.1M, pH12.6), aqueous sodium hydroxide solution (0.1M, pH 12.73) and the suspensions were shaken at room temperature for 24 hours at 200 rpm in a mechanical shaker water bath till no further drug went into solution when checked visually. The suspensions were filtered through a 0.22 μm membrane filter (supplied by Millipore) and the content of DRF-(5S,20S)-1042 was quantified by using the HPLC method described above.
# [5] = Arginine neutralized, 24 hours RT
# [6] = Meglumine neutralized, 24 hours RT
compound,measurement,setting,value
"CC[C@@]1(O)C(=O)OCc2c1cc1n(c2=O)[C@@H](OCCO)c2cc3ccccc3nc2-1 [DRF-(5S,20S)-1042, 5(S)-(2′-hydroxyethoxy)-20(S)-camptothecin]","A = DRF (5R,20S)-1042","[1]; Arginine as is, 24 hours RT",5.22
same,B = Decarboxylated impurity,"[1]; Arginine as is, 24 hours RT",0.19
same,C = Dimer impurity,"[1]; Arginine as is, 24 hours RT",0.95
same,"D = Total impurities excluding DRF (5R,20S)-1042","[1]; Arginine as is, 24 hours RT",3.23
same,"A = DRF (5R,20S)-1042","[1]; Arginine as is, Initial",3.45
same,B = Decarboxylated impurity,"[1]; Arginine as is, Initial",0.06
same,C = Dimer impurity,"[1]; Arginine as is, Initial",0.88
same,"D = Total impurities excluding DRF (5R,20S)-1042","[1]; Arginine as is, Initial",2.50
same,"A = DRF (5R,20S)-1042",[1]; [5],3.26
same,B = Decarboxylated impurity,[1]; [5],0.18
same,C = Dimer impurity,[1]; [5],0.93
same,"D = Total impurities excluding DRF (5R,20S)-1042",[1]; [5],3.11
same,"A = DRF (5R,20S)-1042","[1]; Arginine neutralized, Initial",3.38
same,B = Decarboxylated impurity,"[1]; Arginine neutralized, Initial",0.04
same,C = Dimer impurity,"[1]; Arginine neutralized, Initial",0.9
same,"D = Total impurities excluding DRF (5R,20S)-1042","[1]; Arginine neutralized, Initial",2.64
same,"A = DRF (5R,20S)-1042","[1]; Meglumine as is, 24 hours RT",2.30
same,B = Decarboxylated impurity,"[1]; Meglumine as is, 24 hours RT",0.33
same,C = Dimer impurity,"[1]; Meglumine as is, 24 hours RT",7.17*
same,"D = Total impurities excluding DRF (5R,20S)-1042","[1]; Meglumine as is, 24 hours RT",11.1
same,"A = DRF (5R,20S)-1042","[1]; Meglumine as is, Initial",2.77
same,B = Decarboxylated impurity,"[1]; Meglumine as is, Initial",0.21
same,C = Dimer impurity,"[1]; Meglumine as is, Initial",12.04
same,"D = Total impurities excluding DRF (5R,20S)-1042","[1]; Meglumine as is, Initial",21.15
same,"A = DRF (5R,20S)-1042",[1]; [6],2.57
same,B = Decarboxylated impurity,[1]; [6],0.33
same,C = Dimer impurity,[1]; [6],1.47
same,"D = Total impurities excluding DRF (5R,20S)-1042",[1]; [6],5.02
same,"A = DRF (5R,20S)-1042","[1]; Meglumine neutralized, Initial",1.05
same,B = Decarboxylated impurity,"[1]; Meglumine neutralized, Initial",0.03
same,C = Dimer impurity,"[1]; Meglumine neutralized, Initial",0.54
same,"D = Total impurities excluding DRF (5R,20S)-1042","[1]; Meglumine neutralized, Initial",1.49
same,"A = DRF (5R,20S)-1042","[1]; NaOH as is, 24 hours RT",101.79
same,B = Decarboxylated impurity,"[1]; NaOH as is, 24 hours RT",0.02
same,C = Dimer impurity,"[1]; NaOH as is, 24 hours RT",0.48
same,"D = Total impurities excluding DRF (5R,20S)-1042","[1]; NaOH as is, 24 hours RT",1.95
same,"A = DRF (5R,20S)-1042","[1]; NaOH as is, Initial",75.40
same,B = Decarboxylated impurity,"[1]; NaOH as is, Initial",0.02
same,C = Dimer impurity,"[1]; NaOH as is, Initial",0.35
same,"D = Total impurities excluding DRF (5R,20S)-1042","[1]; NaOH as is, Initial",1.81
same,"A = DRF (5R,20S)-1042","[1]; NaOH neutralized, 24 hours RT",56.26
same,B = Decarboxylated impurity,"[1]; NaOH neutralized, 24 hours RT",0.02
same,C = Dimer impurity,"[1]; NaOH neutralized, 24 hours RT",0.37
same,"D = Total impurities excluding DRF (5R,20S)-1042","[1]; NaOH neutralized, 24 hours RT",2.22
same,"A = DRF (5R,20S)-1042","[1]; NaOH neutralized, Initial",56.75
same,B = Decarboxylated impurity,"[1]; NaOH neutralized, Initial",0.02
same,C = Dimer impurity,"[1]; NaOH neutralized, Initial",0.38
same,"D = Total impurities excluding DRF (5R,20S)-1042","[1]; NaOH neutralized, Initial",1.81
same,AUC,[2],1.1 µM·h
same,Bulk density,[3]; drug substance,0.17 g/mL
same,Carr Index,[3]; drug substance,46.5%
same,Hausner ratio,[3]; drug substance,1.9
same,Moisture content,[3]; drug substance,0.2 % w/w
same,Tapped density,[3]; drug substance,0.31 g/mL
same,Particle size D10,[3]; lot used for the examples,D10 = 3.6 μm
same,Particle size D50,[3]; lot used for the examples,D50 = 10.9 μm
same,Particle size D90,[3]; lot used for the examples,D90 = 34.0 μm
same,solubility at 24 h,[4]; fessif,~41 µg/mL
same,solubility at 24 h,"[4]; pH 12.6, aqueous buffer",4160 µg/mL
same,solubility at 24 h,"[4]; pH 12.73, aqueous buffer",6670 µg/mL

# Source: patent US20110177161A1, “PHARMACEUTICAL COMPOSITIONS OF [5(S)-(2'-HYDROXYETHOXY)-20(S)-CAMPTOTHECIN” (DR. REDDY'S LABORATORIES LIMITED, priority 2007, published 2011)
